Results published in BindingDB's records for doi:10.1016/j.bmcl.2004.01.013 (University of Arizona, 2004).

Target: Ceramide glucosyltransferase (Canis familiaris)
Assay: Inhibitory concentration against glucosylceramide synthase in MDCK cell line

Row | IC50 [nM] | SMILES
1 | 90 | CCCCCCCCCCCCCCCC(=O)NC(CN1CCCC1)C(O)c1ccc(O)cc1 (configuration not stated) [Hexadecanoic acid [2-hydroxy-2-(4-hydroxy-phenyl)-1-pyrrolidin-1-ylmethyl-ethyl]-amide]
2 | 90 | CCCCCCCCCCCCCCCC(=O)NC(CN1CCCC1)C(O)c1ccc2c(c1)OCCO2 (configuration not stated) [Hexadecanoic acid [2-(2,3-dihydro-benzo[1,4]dioxin-6-yl)-2-hydroxy-1-pyrrolidin-1-ylmethyl-ethyl]-amide]
